Data as given in patent US9834549B2, “3,3-disubstituted-(8-aza-bicyclo[3.2.1]OCT-8-yl)-[5-(1H-pyrazol-4-yl)-thiophen-3-yl]-methanones as inhibitors of 11 (β)-HSD1” (The University Of Edinburgh, priority 2010, dated 2017).
Where two headings read alike, the source gives them in different places.

Columns and labels:
human 11β-HSD2 = target: T1, human 11β-HSD2 (Homo sapiens, UniProt P80365); assay: Cellular in vitro 11β-HSD2 enzyme inhibition assay (CHO cells); type: cell-based; settings: CHO cells transfected with human 11β-HSD2
T1 construct: CHO cells stably transfected with the full-length gene coding for human 11β-HSD2 were used; expressed in transfected cells; host or cells: CHO (stably transfected)
T1 sequence (P80365 1-405): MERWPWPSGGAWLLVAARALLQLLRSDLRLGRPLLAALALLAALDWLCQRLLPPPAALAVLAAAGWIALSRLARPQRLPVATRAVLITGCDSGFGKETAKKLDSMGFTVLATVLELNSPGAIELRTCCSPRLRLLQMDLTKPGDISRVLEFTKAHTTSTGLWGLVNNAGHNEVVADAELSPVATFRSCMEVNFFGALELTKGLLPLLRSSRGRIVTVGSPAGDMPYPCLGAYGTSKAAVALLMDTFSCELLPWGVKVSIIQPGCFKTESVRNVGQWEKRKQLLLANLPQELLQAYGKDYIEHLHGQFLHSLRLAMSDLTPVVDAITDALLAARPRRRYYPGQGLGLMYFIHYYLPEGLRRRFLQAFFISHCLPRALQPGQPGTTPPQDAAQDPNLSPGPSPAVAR
Protocol: For measurement of inhibition of 11β-HSD2, CHO cells stably transfected with the full-length gene coding for human 11β-HSD2 were used. Assays were carried out in 96-well microplates containing 1×10^5 cells/well. Controls and compounds were plated as above, so that the final DMSO concentration in each well was 1%. To initiate the assay, 90 μL of a solution of HAMS F-12 medium containing 1% glutamine, 1% penicillin and streptomycin, and 22 nM tritiated cortisol was added to each well of the assay plate. The plate was then incubated in 5% CO2, 95% O2 at 37° C. for 16 hours.
The assay solutions were transferred to glass tubes and […] added to each tube. Each tube was vortexed thoroughly and the upper layer containing the tritiated steroid transferred to a fresh glass tube. The solvent was evaporated by placing the tubes in a heating block at 65° C. under a stream of nitrogen gas. 20 μL ethanol was added to each of the dried samples and vortexed briefly. Each sample was applied to a silica TLC plate and the plate dried. The plate was placed vertically in a glass tank containing 92% chloroform: 8% ethanol and the solvent allowed to rise up the plate. The plate was dried, placed in an imaging cassette, and overlayed with a tritium imaging plate for 1-2 days. The amount of enzyme inhibition in each sample was determined by measuring the intensity of the substrate and product spots using a phospho-imager. IC50 values for inhibitors were determined as described above for 11β-HSD1.

human 11β-HSD1 = target: T2, human 11β-HSD1 (Homo sapiens, UniProt P28845); assay: Cellular in vitro 11β-HSD1 enzyme inhibition assay (SPA, HEK293/11β-HSD1 cells); type: cell-based; settings: read-out: IC50 for 11β-HSD1 (HEK293)
T2 construct: stably transfected with a construct containing the full-length gene coding for the human 11β-HSD1 enzyme; expressed in transfected cells; host or cells: HEK293 (stably transfected, HEK293/11β-HSD1)
Protocol: Compounds were assessed by a Scintillation Proximity Assay (SPA) performed according to the following protocol:
HEK293 cells were stably transfected with a construct containing the full-length gene coding for the human 11β-HSD1 enzyme to create HEK293/11β-HSD1 cells. Cells were routinely cultured in DMEM containing 10% calf foetal serum, 1% glutamine, and 1% penicillin and streptomycin. Prior to assay, cells were plated at 2×10^4 cells/well in 96-well poly-D-Lys coated flat-bottomed microplates and incubated in 5% CO2, 95% O2 at 37° C. for 24 hours. The media in each well was removed immediately before assay.
Compounds to be tested were dissolved in DMSO at 10 mM and serially diluted into water containing 10% DMSO. Diluted compounds at a volume of 10 μL were added to wells of a 96-well V-bottomed microplate. A solution of DMEM, 1% glutamine, 1% penicillin and streptomycin, and 22 nM tritiated cortisone was prepared and 90 μL added to each well of the assay plate. This solution (100 μL/well) was transferred to the plate containing the cells. The plate was then incubated in 5% CO2, 95% O2 at 37° C. for 2 hours.
Following this incubation, 50 μL of the assay solution was transferred to each well of a 96-well scintillation microplate. A mixture consisting of anti-mouse YSi SPA beads, pre-mixed with anti-cortisol antibody in assay buffer (50 mM Tris.HCl, pH 7.0; 300 mM NaCl; 1 mM EDTA, 5% glycerol) was prepared and 50 μL added to each well of the scintillation microplate. An adhesive strip was applied to the microplate and the plate gently shaken for at least 2 hours at room temperature, and then spun briefly on a low speed centrifuge. The plate was read on a scintillation counter suitable for 96-well microplates. For the calculation of percentage inhibition, a series of wells were added to the plate that represented the assay maximum and the assay minimum: one set that contained substrate without cells (minimum) and another set that contained substrate and cells without any compound (maximum).
The calculation of median inhibitory concentration (IC50) values for the compounds was performed using GraphPad Prism® software. Dose-response curves for each compound were plotted as fractional inhibition and data fitted to the four parameter logistic equation.

[1] = In vitro human liver microsomal stability assay; type: in vitro ADME; settings: human liver microsomes
Protocol: To predict in vivo metabolism of compounds, the stability of compounds incubated with human liver microsomes in vitro was determined. Human liver microsome preparations were stored at −80° C. and thawed on ice prior to use. The thawed microsomes were diluted to a concentration of 2 mg/mL in 50 mM sodium phosphate, pH 7.4. Reference and test compounds were prepared as 10 mM stocks in 100% DMSO and diluted to 1 mM in acetonitrile before use. Each compound was tested in triplicate as follows:
4 μL of test or reference compound was added to a well of a 24-well microplate and 0.5 mL of 4 mM NADPH added. The plate was then transferred to a shaker for 10 minutes at room temperature. 30 μL of the compound/NADPH solution was transferred to the well of a 96-well microplate and incubated at 37° C. for 5 minutes. 30 μL of human liver microsomes (pre-incubated at 37° C. for 5 minutes) was added to the well containing the compound/NADPH solution and the plate incubated for the selected period of time (typically 0 or 30 minutes). The reaction was stopped by adding 60 μL of ice cold […] trichloroacetic acid. The plate was centrifuged at 1000 rpm for 5 minutes at room temperature and the supernatant transferred to the well of a new 96-well V-bottomed microplate for mass spectrometric analysis.
Samples were analyzed by TSQ Quantum Discovery Tandem Mass Spectrometer and Surveyor Liquid Chromatogram (Thermo, Hemel-Hempstead, UK). 10 μL of each sample was injected in a mobile phase consisting of 60%:40% methanol:5 mM ammonium acetate at a flow rate of 0.5 mL/minute. The column used was a BDS hypersil, C18, 50×2.1 mm with a 5 μm particle size.
Each compound was tuned with a spray voltage of 3000 V and a capillary temperature of 300° C. and values for tube lens, CID and product ions were determined.
The peak area for each compound was measured in triplicate for the 0 and 30 minute samples and the average of each was reported. The percentage remaining after 30 minutes was calculated as the average peak area of the sample after 30 minutes divided by the average peak area at 0 minutes. The RSD was 10% or lower for each compound.

[2] = HEK293 cells transfected with human 11β-HSD1, first value in cell

T2 sequence (P28845 whole entry): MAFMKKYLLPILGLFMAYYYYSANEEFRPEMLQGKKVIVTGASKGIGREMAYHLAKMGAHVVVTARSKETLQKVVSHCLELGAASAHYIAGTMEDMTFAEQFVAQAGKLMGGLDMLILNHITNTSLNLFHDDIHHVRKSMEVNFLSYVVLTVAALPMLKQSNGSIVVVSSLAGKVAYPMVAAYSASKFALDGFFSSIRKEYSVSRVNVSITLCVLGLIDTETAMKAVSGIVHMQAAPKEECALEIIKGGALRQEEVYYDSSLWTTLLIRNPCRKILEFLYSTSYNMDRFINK

Structure (SMILES) | IC50 (human 11β-HSD1; HEK293, potency groups) | other results
Cc1cccnc1C1(F)CC2CCC(C1)N2C(=O)c1csc(-c2cn[nH]c2)c1 (single isomer, unassigned) [XX-16, [3-Fluoro-3-(3-methyl-pyridin-2-yl)-8-aza-bicyclo[3.2.1]oct-8-yl]-[5-(1H-pyrazol-4-yl)-thiophen-3-yl]-methanone] | ≤ 0.1 µM | IC50 (human 11β-HSD2): > 10000 nM; IC50 (human 11β-HSD1; [2]): 0.009 µM
O=C(c1csc(-c2cn[nH]c2)c1)N1C2CCC1CC(F)(c1nccs1)C2 (single isomer, unassigned) [XX-34, (3-Fluoro-3-thiazol-2-yl-8-aza-bicyclo[3.2.1]oct-8-yl)-[5-(1H-pyrazol-4-yl)-thiophen-3-yl]-methanone] | 0.1 to 0.5 µM | –
O=C(c1csc(-c2cn[nH]c2)c1)N1C2CCC1CC(O)(c1ncccc1F)C2 (centres unmarked) [XX-02] | – | IC50 (human 11β-HSD1; HEK293, potency groups, μM): 0.5 to 10 µM
O=C(c1csc(-c2cn[nH]c2)c1)N1C2CCC1CC(O)(c1ncccc1Cl)C2 (centres unmarked) [XX-03] | ≤ 0.1 µM | IC50 (human 11β-HSD2): > 10000 nM; IC50 (human 11β-HSD1; [2]): 0.012 µM
O=C(c1csc(-c2cn[nH]c2)c1)N1C2CCC1CC(O)(c1ccncc1Cl)C2 (centres unmarked) [XX-04] | ≤ 0.1 µM | –
COc1cccc(C2(O)CC3CCC(C2)N3C(=O)c2csc(-c3cn[nH]c3)c2)n1 (centres unmarked) [XX-05] | ≤ 0.1 µM | –
COc1cccnc1C1(O)CC2CCC(C1)N2C(=O)c1csc(-c2cn[nH]c2)c1 (centres unmarked) [XX-06] | ≤ 0.1 µM | –
Cc1cccnc1C1(O)CC2CCC(C1)N2C(=O)c1csc(-c2cn[nH]c2)c1 (centres unmarked) [XX-07] | ≤ 0.1 µM | IC50 (human 11β-HSD2): > 10000 nM; IC50 (human 11β-HSD1; [2]): 0.003 µM
CN(C)c1cccc(C2(O)CC3CCC(C2)N3C(=O)c2csc(-c3cn[nH]c3)c2)n1 (centres unmarked) [XX-08] | ≤ 0.1 µM | –
O=C(c1csc(-c2cn[nH]c2)c1)N1C2CCC1CC(O)(c1ncccc1C(F)(F)F)C2 (centres unmarked) [XX-09] | ≤ 0.1 µM | –
COC1(c2ccccn2)CC2CCC(C1)N2C(=O)c1csc(-c2cn[nH]c2)c1 (centres unmarked) [XX-10] | ≤ 0.1 µM | –
COC1(c2ncccc2C)CC2CCC(C1)N2C(=O)c1csc(-c2cn[nH]c2)c1 (centres unmarked) [XX-11] | ≤ 0.1 µM | –
CCOC1(c2ccccn2)CC2CCC(C1)N2C(=O)c1csc(-c2cn[nH]c2)c1 (centres unmarked) [XX-12] | ≤ 0.1 µM | –
O=C(c1csc(-c2cn[nH]c2)c1)N1C2CCC1CC(F)(c1ccccn1)C2 (centres unmarked) [XX-14] | ≤ 0.1 µM | –
Cc1cccnc1C1(C#N)CC2CCC(C1)N2C(=O)c1csc(-c2cn[nH]c2)c1 (centres unmarked) [XX-19] | ≤ 0.1 µM | –
O=C(c1csc(-c2cn[nH]c2)c1)N1C2CCC1CC(O)(c1ccncn1)C2 (centres unmarked) [XX-21] | – | IC50 (human 11β-HSD1; HEK293, potency groups, μM): 0.5 to 10 µM
O=C(c1csc(-c2cn[nH]c2)c1)N1C2CCC1CC(O)(c1cncnc1)C2 (centres unmarked) [XX-22] | – | IC50 (human 11β-HSD1; HEK293, potency groups, μM): 0.5 to 10 µM
O=C(c1csc(-c2cn[nH]c2)c1)N1C2CCC1CC(O)(c1ncncc1Cl)C2 (centres unmarked) [XX-23] | ≤ 0.1 µM | –
Cc1nccnc1C1(O)CC2CCC(C1)N2C(=O)c1csc(-c2cn[nH]c2)c1 (centres unmarked) [XX-25] | 0.1 to 0.5 µM | –
N#CC1(c2ncccn2)CC2CCC(C1)N2C(=O)c1csc(-c2cn[nH]c2)c1 (centres unmarked) [XX-26] | ≤ 0.1 µM | –

Structure (SMILES) | IC50 (human 11β-HSD1; HEK293, potency groups) | other results
O=C(c1csc(-c2cn[nH]c2)c1)N1C2CCC1CC(O)(c1cccnn1)C2 (centres unmarked) [XX-27] | ≤ 0.1 µM | % Parent Remaining at 30 min [1]: +++ (61-100% +++)
O=C(c1csc(-c2cn[nH]c2)c1)N1C2CCC1CC(O)(c1cccnn1)C2 (centres unmarked) [XX-28] | – | IC50 (human 11β-HSD1; HEK293, potency groups, μM): 0.5 to 10 µM
Cc1csc(C2(O)CC3CCC(C2)N3C(=O)c2csc(-c3cn[nH]c3)c2)n1 (centres unmarked) [XX-30] | 0.1 to 0.5 µM | –
Cc1cnc(C2(O)CC3CCC(C2)N3C(=O)c2csc(-c3cn[nH]c3)c2)s1 (centres unmarked) [XX-32] | ≤ 0.1 µM | –
N#CC1(c2nccs2)CC2CCC(C1)N2C(=O)c1csc(-c2cn[nH]c2)c1 (centres unmarked) [XX-35] | ≤ 0.1 µM | % Parent Remaining at 30 min [1]: ++ (31-60% ++)
O=C(c1csc(-c2cn[nH]c2)c1)N1C2CCC1CC(O)(c1ncco1)C2 (centres unmarked) [XX-37] | ≤ 0.1 µM | % Parent Remaining at 30 min [1]: +++ (61-100% +++)
Cn1ccnc1C1(O)CC2CCC(C1)N2C(=O)c1csc(-c2cn[nH]c2)c1 (centres unmarked) [XX-38] | – | IC50 (human 11β-HSD1; HEK293, potency groups, μM): 0.5 to 10 µM
Cn1nccc1C1(O)CC2CCC(C1)N2C(=O)c1csc(-c2cn[nH]c2)c1 (centres unmarked) [XX-39] | 0.1 to 0.5 µM | –
O=C(c1csc(-c2cn[nH]c2)c1)N1C2CCC1CC(O)(c1nc3ccccc3s1)C2 (centres unmarked) [XX-40] | 0.1 to 0.5 µM | –
O=C(c1csc(-c2cn[nH]c2)c1)N1C2CCC1CC(F)(c1ncccc1F)C2 (centres unmarked) [XX-41] | ≤ 0.1 µM | –
O=C(c1csc(-c2cn[nH]c2)c1)N1CCC(O)(c2ccccn2)CC1 [YY-01] | – | IC50 (human 11β-HSD1; HEK293, potency groups, μM): 0.5 to 10 µM
O=C(c1csc(-c2cn[nH]c2)c1)N1CCC(O)(c2ncc(Cl)cc2Cl)CC1 [YY-03] | 0.1 to 0.5 µM | –
O=C(c1csc(-c2cn[nH]c2)c1)N1CCC(O)(c2ncccc2C(F)(F)F)CC1 [YY-04] | 0.1 to 0.5 µM | –
CCc1ccc(Cl)c(C2(O)CCN(C(=O)c3csc(-c4cn[nH]c4)c3)CC2)n1 [YY-05] | 0.1 to 0.5 µM | –
O=C(c1csc(-c2cn[nH]c2)c1)N1CCC(O)(c2ccncc2F)CC1 [YY-07] | 0.1 to 0.5 µM | % Parent Remaining at 30 min [1]: +++ (61-100% +++)
O=C(c1csc(-c2cn[nH]c2)c1)N1CCC(O)(c2ncccc2F)CC1 [YY-08] | – | IC50 (human 11β-HSD1; HEK293, potency groups, μM): 0.5 to 10 µM
O=C(c1csc(-c2cn[nH]c2)c1)N1CCC(F)(c2ncccc2Cl)CC1 [YY-09] | 0.1 to 0.5 µM | % Parent Remaining at 30 min [1]: +++ (61-100% +++)
O=C(c1csc(-c2cn[nH]c2)c1)N1CCC(O)(c2ncccn2)CC1 [YY-10] | – | IC50 (human 11β-HSD1; HEK293, potency groups, μM): 0.5 to 10 µM
O=C(c1csc(-c2cn[nH]c2)c1)N1CCC(F)(c2ncccn2)CC1 [YY-11] | – | IC50 (human 11β-HSD1; HEK293, potency groups, μM): 0.5 to 10 µM
